Test [1] concerns the target Serine/threonine-protein kinase PAK 2 (Homo sapiens) (UniProt Q13177). The test is described as follows: Inhibition of human PAK2 at 18.6 nM by HotSpot assay relative to control.
Test [2] has as its target Serine/threonine-protein kinase 10 (Homo sapiens) (UniProt O94804). Nature of the test: Inhibition of human LOK at 18.6 nM by HotSpot assay relative to control.
Test [3] addresses T1, Serine/threonine-protein kinase A-Raf (Homo sapiens) (UniProt P10398).
T1 sequence (whole entry): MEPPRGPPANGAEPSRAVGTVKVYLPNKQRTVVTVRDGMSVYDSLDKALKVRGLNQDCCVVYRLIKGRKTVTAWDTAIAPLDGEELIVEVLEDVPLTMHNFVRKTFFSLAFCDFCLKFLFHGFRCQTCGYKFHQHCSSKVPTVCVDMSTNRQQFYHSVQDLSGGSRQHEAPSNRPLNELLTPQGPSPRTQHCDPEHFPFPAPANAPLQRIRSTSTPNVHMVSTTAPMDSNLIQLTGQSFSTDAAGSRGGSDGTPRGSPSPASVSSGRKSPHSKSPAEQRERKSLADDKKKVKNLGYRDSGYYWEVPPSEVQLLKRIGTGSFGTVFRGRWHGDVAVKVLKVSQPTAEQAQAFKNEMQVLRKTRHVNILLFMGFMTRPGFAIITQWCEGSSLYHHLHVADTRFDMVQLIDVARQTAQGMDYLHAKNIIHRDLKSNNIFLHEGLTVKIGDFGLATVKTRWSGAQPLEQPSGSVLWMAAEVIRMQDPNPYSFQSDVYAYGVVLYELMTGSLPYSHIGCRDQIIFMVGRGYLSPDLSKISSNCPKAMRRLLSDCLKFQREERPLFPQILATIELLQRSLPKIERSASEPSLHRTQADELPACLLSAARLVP
Nature of the test: Inhibition of human ARAF at 18.6 nM by HotSpot assay relative to control.

Test [4] concerns the target T2, Tyrosine-protein kinase Tec (Homo sapiens) (UniProt P42680).
T2 sequence (whole entry): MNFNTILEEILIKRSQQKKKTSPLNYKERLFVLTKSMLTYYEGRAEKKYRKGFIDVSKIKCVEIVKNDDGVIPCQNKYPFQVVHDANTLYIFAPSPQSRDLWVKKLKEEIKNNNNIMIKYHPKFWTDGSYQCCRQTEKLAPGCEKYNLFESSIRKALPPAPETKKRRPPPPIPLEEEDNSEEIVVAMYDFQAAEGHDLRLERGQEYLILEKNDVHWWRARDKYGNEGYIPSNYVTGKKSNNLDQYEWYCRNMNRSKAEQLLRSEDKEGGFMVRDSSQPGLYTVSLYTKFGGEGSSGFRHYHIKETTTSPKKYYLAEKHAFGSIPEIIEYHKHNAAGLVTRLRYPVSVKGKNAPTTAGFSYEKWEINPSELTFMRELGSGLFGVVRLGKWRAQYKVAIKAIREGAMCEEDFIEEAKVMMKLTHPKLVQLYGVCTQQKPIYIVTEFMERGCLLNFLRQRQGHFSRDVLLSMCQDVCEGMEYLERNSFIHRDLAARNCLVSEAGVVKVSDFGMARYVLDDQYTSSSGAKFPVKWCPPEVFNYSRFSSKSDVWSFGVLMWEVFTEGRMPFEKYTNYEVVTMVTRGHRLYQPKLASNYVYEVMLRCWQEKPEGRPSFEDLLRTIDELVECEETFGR
Nature of the test: Inhibition of human TEC at 18.6 nM by HotSpot assay relative to control.

Test [5] deals with T3, Serine/threonine-protein kinase Nek11 (Homo sapiens) (UniProt Q8NG66).
T3 sequence (whole entry): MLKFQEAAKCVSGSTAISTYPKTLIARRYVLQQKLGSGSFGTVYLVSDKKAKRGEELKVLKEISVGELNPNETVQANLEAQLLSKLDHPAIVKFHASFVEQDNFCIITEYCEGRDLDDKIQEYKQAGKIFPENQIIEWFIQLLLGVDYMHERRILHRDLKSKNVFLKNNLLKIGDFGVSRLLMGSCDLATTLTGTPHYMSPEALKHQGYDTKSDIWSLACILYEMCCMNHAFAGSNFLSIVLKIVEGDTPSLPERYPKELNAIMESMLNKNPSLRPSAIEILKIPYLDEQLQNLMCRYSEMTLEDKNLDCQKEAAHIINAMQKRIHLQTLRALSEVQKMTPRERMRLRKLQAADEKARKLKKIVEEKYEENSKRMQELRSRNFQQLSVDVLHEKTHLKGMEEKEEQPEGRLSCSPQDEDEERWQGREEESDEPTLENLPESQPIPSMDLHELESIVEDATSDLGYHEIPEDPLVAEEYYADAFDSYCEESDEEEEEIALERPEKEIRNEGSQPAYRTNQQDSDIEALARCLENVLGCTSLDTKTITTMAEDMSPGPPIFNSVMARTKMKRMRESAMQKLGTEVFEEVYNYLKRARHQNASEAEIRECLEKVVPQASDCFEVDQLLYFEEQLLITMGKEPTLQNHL
The test is described as follows: Inhibition of human NEK11 at 18.6 nM by HotSpot assay relative to control.

Test [6] has as its target T4, Mitogen-activated protein kinase kinase kinase kinase 2 (Homo sapiens) (UniProt Q12851).
T4 sequence (whole entry): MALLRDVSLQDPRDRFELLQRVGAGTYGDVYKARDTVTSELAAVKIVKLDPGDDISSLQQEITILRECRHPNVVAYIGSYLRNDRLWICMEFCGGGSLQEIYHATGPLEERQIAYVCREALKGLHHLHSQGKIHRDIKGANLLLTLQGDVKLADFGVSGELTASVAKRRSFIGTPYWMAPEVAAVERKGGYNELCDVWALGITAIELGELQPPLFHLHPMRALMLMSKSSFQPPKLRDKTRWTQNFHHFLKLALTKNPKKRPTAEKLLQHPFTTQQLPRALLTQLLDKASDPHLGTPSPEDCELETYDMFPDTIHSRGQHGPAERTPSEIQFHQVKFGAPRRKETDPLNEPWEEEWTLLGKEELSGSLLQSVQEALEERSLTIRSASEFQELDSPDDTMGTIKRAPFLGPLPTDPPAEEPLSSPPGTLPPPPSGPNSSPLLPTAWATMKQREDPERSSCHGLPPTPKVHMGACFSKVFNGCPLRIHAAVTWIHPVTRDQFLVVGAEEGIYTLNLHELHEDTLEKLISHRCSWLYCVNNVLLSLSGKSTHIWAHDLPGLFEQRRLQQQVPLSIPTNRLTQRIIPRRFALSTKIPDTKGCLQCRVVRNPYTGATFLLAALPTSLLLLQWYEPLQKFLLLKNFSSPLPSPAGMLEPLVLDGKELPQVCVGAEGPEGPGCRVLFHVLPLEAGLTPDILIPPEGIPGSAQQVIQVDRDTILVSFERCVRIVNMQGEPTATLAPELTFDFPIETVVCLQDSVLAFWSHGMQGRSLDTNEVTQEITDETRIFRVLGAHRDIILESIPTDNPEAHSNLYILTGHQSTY
Nature of the test: Inhibition of human GCK at 1.82 nM by HotSpot assay relative to control.

Sequence of Serine/threonine-protein kinase PAK 2 (Homo sapiens) (Q13177 whole entry): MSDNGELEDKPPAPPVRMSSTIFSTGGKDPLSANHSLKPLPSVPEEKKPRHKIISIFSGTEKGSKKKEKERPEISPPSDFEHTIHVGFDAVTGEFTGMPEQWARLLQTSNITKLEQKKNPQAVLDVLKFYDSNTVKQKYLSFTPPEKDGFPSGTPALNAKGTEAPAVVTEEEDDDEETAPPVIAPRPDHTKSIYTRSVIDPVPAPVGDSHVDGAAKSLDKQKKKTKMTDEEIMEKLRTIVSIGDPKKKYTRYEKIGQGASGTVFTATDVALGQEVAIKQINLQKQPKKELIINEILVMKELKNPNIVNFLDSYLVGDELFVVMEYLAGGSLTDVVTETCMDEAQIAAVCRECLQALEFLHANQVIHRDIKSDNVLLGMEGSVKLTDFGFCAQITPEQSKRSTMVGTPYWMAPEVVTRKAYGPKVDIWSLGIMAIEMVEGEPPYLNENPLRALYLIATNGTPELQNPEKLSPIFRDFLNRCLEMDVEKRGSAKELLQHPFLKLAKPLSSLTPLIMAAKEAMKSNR
Sequence of Serine/threonine-protein kinase 10 (Homo sapiens) (O94804 whole entry, looked up): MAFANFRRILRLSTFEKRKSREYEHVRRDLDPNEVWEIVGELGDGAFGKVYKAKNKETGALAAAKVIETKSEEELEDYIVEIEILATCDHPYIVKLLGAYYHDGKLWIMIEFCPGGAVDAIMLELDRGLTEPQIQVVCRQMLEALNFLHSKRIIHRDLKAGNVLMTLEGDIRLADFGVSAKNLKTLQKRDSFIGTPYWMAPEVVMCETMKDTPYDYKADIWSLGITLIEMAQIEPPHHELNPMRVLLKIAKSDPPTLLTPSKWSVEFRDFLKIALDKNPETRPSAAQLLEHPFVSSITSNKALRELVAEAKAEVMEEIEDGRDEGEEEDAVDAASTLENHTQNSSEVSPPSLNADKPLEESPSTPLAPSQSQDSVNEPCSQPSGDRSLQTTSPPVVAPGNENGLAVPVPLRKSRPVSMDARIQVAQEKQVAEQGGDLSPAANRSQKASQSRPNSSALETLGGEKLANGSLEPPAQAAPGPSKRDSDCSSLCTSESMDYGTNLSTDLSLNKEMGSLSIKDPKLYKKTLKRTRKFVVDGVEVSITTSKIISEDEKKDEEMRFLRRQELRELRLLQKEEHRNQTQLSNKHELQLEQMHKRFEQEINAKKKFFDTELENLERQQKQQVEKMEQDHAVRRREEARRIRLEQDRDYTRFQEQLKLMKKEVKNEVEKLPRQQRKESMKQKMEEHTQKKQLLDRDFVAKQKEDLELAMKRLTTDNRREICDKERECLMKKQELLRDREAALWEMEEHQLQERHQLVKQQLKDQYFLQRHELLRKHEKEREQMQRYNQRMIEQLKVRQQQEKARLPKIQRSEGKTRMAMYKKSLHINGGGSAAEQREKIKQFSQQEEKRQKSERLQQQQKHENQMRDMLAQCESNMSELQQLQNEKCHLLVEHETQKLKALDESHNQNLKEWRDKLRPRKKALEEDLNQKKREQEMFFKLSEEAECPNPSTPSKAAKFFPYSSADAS

As to `C[C@]1(O)C[C@@H](c2nc(-c3ccc4ccc(-c5ccccc5)nc4c3)c3c(N)nccn32)C1`, the inhibition in test [1] was -7.87%; in test [2] it was 9.09%; in test [3] it was 5.16%; in test [4] it was 2.21%; in test [5] it was 10.2%.
On to `C[C@@]1(C(=O)Nc2ccc(F)nc2)CCCN1c1nc(Nc2cc(C3CC3)n[nH]2)c2cccn2n1`, for which the inhibition in test [6] was -0.04%.

Usually inhibition stands for the change of the read-out against control, counted positive when it falls.
